Results published in patent publication US8557872B2, “Compounds, isomer thereof, or pharmaceutically acceptable salts thereof as vanilloid receptor antagonist; and pharmaceutical compositions containing the same” (Amorepacific Corporation, priority 2008, dated 2013).
Where two headings read alike, the source gives them in different places.

Tests used:
vanilloid receptor = molecular target: T1, vanilloid receptor (Rattus norvegicus, UniProt O35433); experiment: 45Ca influx test (calcium uptake) in primary cultured DRG neurons, capsaicin 0.5 μM; assay type: cell-based
T1 construct: DRG nerve cells from the primary culture of 2 days were equilibrated by washing 4 times; endogenous in cells; host or cells: primary culture of dorsal root ganglion neurons from neonatal SD rats
T1 sequence (O35433 whole entry): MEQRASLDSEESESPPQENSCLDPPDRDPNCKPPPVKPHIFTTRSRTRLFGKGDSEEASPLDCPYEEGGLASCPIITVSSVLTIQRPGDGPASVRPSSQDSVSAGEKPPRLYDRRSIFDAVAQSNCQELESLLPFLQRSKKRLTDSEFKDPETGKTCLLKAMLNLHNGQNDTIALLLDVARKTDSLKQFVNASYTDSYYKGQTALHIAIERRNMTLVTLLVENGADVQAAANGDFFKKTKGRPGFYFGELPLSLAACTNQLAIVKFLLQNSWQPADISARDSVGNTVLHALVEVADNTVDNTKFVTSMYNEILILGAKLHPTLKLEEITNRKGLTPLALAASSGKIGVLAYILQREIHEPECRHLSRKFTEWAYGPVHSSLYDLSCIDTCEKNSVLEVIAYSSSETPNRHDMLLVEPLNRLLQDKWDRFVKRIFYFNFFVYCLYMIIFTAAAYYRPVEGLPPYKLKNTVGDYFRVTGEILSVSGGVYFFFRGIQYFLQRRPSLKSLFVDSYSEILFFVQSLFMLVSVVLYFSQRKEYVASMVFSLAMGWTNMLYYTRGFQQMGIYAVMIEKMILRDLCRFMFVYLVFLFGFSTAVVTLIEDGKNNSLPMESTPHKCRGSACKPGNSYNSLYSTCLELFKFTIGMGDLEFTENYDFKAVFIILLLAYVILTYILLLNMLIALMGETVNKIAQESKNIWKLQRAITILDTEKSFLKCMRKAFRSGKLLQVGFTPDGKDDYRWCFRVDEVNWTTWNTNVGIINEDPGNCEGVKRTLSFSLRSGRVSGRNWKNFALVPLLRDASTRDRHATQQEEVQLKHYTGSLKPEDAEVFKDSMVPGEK
Description: 1) Separation of Spinal Dorsal Root Ganglia (DRG) in Newborn Rats and Primary Culture Thereof
Neonatal (2-3 day old or younger than 2-3 day old) SD rats were put in ice for 5 minutes to anesthetize and disinfected with 70% ethanol. […] The DRG were incubated sequentially at 37° C. for 30 mins in 200 U/ml collagenase and 2.5 mg/ml trypsin, separately. The ganglia were washed twice with DME/F12 medium supplemented with 10% horse serum, triturated through a fire-polished Pasteur pipette, filtered through Nitex 80 membrane to obtain single cell suspension and the suspension was washed once more. This was subjected to centrifugation, then resuspended in cell culture medium at certain level of cell density. As the cell culture medium, DME/F12 medium supplemented with 10% horse serum was diluted with identical medium conditioned by C6 glioma cells 2 days on a confluent monolayer (1:1), and NGF (Nerve Growth Factor) was added to adjust 200 ng/ml as final concentration. After the cells were grown 2 days in medium where cytosine arabinoside (Ara-C, 100 μM) was added to kill dividing nonneuronal cells, medium was changed to one without Ara-C. The resuspended cells were plated at a density of 1500-2000 neurons/well onto Terasaki plates previously coated with 10 μg/ml poly-D-ornithine.
2) ^45Ca Influx Experiments
DRG nerve cells from the primary culture of 2 days were equilibrated by washing 4 times with HEPES (10 mM, pH 7.4)-buffered Ca^2+, Mg^2+-free HBSS (H-HBSS). The solution in each well was removed from the individual well. Medium containing the test compound plus capsaicin (final concentration 0.5 μM) and ^45Ca (final concentration 10 μCi/ml) in H-HBSS was added to each well and incubated at room temperature for 10 mins. Terasaki plates were washed five times with H-HBSS and dried at room temperature. To each well, 0.3% SDS (10 μl) was added to elute ^45Ca. After the addition of scintillation cocktail of into each well, the amount of ^45Ca influx into neuron was measured by counting radioactivity.

[1] = PK study in rats, single oral administration; assay type: in vivo, rat; parameters: AUC: concentration or dose not given beside the values; details: rat, single oral administration, plasma
Description: Pharmacokinetics of compounds in rats were analyzed using the following experiment. Rats were fasted overnight prior to administration and until approximately 4 hours after administration. Rats were given a single oral administration of compound at same dose. Administration volume was 10 ml/kg. Blood samples were collected from the retro-orbital sinus at various times over the following 7 hrs. Immediately after each collection, plasmas were separated from blood cells by centrifugation and stored at −20° C. until the analysis was performed. The plasma samples were analyzed using a reverse phase high-performance chromatography (HPLC) method.

[2] = rat DRG neurons, capsaicin 0.5 μM, 45Ca, read-out: Antagonist Calcium Uptake Test (IC50)
[3] = Table 2, read-out: T½ (converted)
[4] = comparison with comparative compounds F and G, read-out: IC50 value

CCCCc1cc(C(F)(F)F)ccc1/C=C/C(=O)N[C@H](C)c1cc(F)c(NS(C)(=O)=O)c(F)c1 [Example 24, (R)-3-(2-Butyl-4-trifluoromethyl-phenyl)-N-[1-(3,5-difluoro-4-methanesulfonylamino-phenyl)-ethyl]-acrylamide]
IC50 (vanilloid receptor; [2]): 44 nM
AUC ([1]; Table 2): 5690 ng·h/mL
Cmax ([1]; Table 2): 1190 ng/mL
Tmax ([1]; Table 2): 2 h
half-life [1, 3]: 125 min

CCCOc1cc(C(F)(F)F)ccc1/C=C/C(=O)N[C@H](C)c1cc(F)c(NS(C)(=O)=O)c(F)c1 [Example 5, (R)—N-[1-(3,5-Difluoro-4-methanesulfonylamino-phenyl)-ethyl]-3-(2-propoxy-4-trifluoromethyl-phenyl)-acrylamide]
IC50 (vanilloid receptor; [2]): 120 nM
AUC ([1]; Table 2): 22500 ng·h/mL
Cmax ([1]; Table 2): 2630 ng/mL
Tmax ([1]; Table 2): 3.5 h
half-life [1, 3]: 258 min

C=Cc1cc(CNC(=O)/C=C/c2ccc(C(F)(F)F)cc2NC(C)C)cc(F)c1NS(C)(=O)=O [Example 54, N-(3-fluoro-4-methanesulfonylamino-5-vinyl-benzyl)-3-(2-isopropylamino-4-trifluoromethyl-phenyl)-acrylamide]
IC50 (vanilloid receptor; [4]): 27 nM
AUC ([1]; Table 2): 5320 ng·h/mL
Cmax ([1]; Table 2): 772 ng/mL
Tmax ([1]; Table 2): 2 h
half-life [1, 3]: 243 min

C=Cc1cc(CNC(=O)/C=C/c2ccc(C(F)(F)F)cc2)ccc1NS(C)(=O)=O [Comp Cpd F, reference compound]
IC50 (vanilloid receptor; [4]): 570 nM
AUC ([1]; Table 4): 40100 ng·h/mL
Tmax ([1]; Table 4): 2 h
Cmax ([1]; Table 4, detection limit 0.100 mcg/ml): 5000 ng/mL
half-life ([1]; Table 4, read-out: T1/2 (converted)): 275 min
